Measurements: patent US12522583B2, “Benzimidazole derivatives and aza-benzimidazole derivatives as Janus kinase 2 inhibitors and uses thereof” (Dana-Farber Cancer Institute, Inc., priority 2018, dated 2026)

What was measured:
Assay in all cases: KINOMEscan
Assay type in all cases: binding
Details in all cases: read-out: percent control
MST1R = MST1R (Homo sapiens (Human), UniProt Q04912)
Description: (§1) Example 2. In Vitro Kinase Selectivity Profiling of the Compounds of the Present Disclosure

PIK3CD = PIK3CD (Homo sapiens (Human), UniProt O00329)
Description: as §1

SGK2 = SGK2 (Homo sapiens (Human), UniProt Q9HBY8)
Sequence of SGK2 (Q9HBY8 whole entry): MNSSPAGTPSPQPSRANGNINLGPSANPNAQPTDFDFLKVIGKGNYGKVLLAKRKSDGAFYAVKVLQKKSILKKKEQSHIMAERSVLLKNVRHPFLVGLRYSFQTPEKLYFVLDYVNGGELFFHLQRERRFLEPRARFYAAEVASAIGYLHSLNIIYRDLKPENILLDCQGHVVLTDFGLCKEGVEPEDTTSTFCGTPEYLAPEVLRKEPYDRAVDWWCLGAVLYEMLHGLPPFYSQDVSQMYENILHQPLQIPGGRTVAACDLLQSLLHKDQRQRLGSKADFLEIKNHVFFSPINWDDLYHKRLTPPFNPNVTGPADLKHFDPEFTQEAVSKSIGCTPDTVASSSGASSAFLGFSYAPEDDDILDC
Description: as §1

WNK3 = WNK3 (Homo sapiens (Human), UniProt Q9BYP7)
Description: as §1

CSNK1A1L = CSNK1A1L (Homo sapiens (Human), UniProt Q8N752)
Description: as §1

CAMK1B = CAMK1B (Homo sapiens (Human), UniProt Q6P2M8)
Description: as §1

AKT3 = AKT3 (Homo sapiens (Human), UniProt Q9Y243)
Sequence of AKT3 (Q9Y243 whole entry): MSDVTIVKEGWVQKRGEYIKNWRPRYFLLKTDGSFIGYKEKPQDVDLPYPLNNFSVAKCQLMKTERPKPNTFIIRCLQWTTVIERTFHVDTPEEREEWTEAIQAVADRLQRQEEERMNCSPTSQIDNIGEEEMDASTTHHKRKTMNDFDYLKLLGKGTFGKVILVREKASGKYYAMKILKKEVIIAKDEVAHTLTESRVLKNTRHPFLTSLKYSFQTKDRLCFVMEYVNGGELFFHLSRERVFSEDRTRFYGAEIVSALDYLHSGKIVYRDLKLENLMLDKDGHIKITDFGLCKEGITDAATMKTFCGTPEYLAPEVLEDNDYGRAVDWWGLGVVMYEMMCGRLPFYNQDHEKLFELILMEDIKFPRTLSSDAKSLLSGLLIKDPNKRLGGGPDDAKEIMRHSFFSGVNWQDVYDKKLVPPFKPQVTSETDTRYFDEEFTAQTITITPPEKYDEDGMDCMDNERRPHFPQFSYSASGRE
Description: as §1

DAPK2 = DAPK2 (Homo sapiens (Human), UniProt Q9UIK4)
Sequence of DAPK2 (Q9UIK4 whole entry): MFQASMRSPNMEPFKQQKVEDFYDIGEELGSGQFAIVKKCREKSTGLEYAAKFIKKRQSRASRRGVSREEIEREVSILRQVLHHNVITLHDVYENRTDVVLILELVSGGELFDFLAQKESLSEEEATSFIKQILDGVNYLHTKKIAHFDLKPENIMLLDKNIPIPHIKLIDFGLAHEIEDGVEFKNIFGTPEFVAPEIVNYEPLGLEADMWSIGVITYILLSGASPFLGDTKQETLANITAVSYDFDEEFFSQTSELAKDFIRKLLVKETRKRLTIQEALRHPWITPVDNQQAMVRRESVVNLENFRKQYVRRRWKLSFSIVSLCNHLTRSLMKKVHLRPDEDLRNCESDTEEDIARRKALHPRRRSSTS
Description: as §1

PRKD2 = PRKD2 (Homo sapiens (Human), UniProt Q9BZL6)
Description: as §1

DRAK2 = DRAK2 (Homo sapiens (Human), UniProt O94768)
Description: as §1

AURKB = AURKB (Homo sapiens (Human), UniProt Q96GD4)
Description: as §1

CSF1R-autoinhibited = CSF1R-autoinhibited (Homo sapiens (Human), UniProt P07333)
Description: as §1

EGFR(S752-I759del) = EGFR(S752-I759del) (Homo sapiens (Human), UniProt P00533, DEL752-759)
Description: as §1

TNK2 = TNK2 (Homo sapiens (Human), UniProt Q07912)
Description: as §1

TRPM6 = TRPM6 (Homo sapiens (Human), UniProt Q9BX84)
Sequence of TRPM6 (Q9BX84 whole entry): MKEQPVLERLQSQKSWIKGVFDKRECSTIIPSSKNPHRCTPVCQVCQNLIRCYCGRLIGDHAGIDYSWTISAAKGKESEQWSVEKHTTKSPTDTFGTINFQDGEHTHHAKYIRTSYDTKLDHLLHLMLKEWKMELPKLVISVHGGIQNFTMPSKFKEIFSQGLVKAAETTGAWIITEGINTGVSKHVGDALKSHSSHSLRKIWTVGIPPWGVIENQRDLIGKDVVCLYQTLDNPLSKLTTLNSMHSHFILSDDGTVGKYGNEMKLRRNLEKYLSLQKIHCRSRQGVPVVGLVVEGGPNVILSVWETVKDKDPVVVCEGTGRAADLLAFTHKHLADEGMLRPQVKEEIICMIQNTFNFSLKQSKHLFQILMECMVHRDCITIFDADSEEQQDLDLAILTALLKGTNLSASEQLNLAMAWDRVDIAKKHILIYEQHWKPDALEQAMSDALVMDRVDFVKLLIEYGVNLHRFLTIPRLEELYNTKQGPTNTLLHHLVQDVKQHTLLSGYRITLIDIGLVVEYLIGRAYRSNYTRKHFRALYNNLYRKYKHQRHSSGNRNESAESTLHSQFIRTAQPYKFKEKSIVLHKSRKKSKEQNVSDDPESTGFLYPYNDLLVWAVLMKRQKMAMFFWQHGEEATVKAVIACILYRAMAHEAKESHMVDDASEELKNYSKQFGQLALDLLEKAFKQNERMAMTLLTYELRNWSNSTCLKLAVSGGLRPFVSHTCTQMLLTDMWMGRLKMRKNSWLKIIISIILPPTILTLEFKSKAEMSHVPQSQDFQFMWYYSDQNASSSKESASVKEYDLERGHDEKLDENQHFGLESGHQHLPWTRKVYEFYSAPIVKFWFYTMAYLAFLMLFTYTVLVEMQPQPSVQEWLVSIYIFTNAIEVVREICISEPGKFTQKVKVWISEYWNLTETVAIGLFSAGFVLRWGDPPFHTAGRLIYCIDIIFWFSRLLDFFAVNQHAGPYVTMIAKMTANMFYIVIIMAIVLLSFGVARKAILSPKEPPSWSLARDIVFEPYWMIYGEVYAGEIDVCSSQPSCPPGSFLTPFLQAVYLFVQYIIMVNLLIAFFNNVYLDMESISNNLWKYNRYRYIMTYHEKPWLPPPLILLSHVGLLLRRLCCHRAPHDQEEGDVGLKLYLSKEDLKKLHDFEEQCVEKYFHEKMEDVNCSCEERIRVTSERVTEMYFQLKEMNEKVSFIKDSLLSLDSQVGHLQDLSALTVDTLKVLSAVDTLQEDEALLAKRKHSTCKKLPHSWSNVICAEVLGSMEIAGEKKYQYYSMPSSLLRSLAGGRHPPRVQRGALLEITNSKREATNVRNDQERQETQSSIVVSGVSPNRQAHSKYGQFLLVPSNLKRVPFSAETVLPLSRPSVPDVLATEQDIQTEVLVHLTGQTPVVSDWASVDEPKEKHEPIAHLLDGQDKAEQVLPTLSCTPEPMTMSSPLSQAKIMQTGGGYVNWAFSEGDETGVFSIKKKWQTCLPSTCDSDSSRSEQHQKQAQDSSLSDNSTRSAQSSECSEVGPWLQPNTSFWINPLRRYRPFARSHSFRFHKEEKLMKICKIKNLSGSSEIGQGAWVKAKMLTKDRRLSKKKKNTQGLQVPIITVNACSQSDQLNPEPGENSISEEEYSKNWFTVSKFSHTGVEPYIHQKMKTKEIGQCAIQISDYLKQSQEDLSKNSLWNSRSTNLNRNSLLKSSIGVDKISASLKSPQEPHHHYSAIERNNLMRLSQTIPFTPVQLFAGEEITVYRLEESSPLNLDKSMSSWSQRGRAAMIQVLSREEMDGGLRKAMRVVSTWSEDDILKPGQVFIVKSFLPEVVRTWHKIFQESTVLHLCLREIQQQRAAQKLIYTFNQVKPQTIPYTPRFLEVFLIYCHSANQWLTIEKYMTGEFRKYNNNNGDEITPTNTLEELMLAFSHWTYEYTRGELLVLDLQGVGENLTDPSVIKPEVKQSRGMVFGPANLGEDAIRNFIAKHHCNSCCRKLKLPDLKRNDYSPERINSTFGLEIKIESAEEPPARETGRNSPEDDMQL
Description: as §1

MET(M1250T) = MET(M1250T) (Homo sapiens (Human), UniProt P08581, M1250T)
Description: as §1

STK16 = STK16 (Homo sapiens (Human), UniProt O75716)
Description: as §1

[1] = biological target: ABL1(T315I)-nonphosphorylated (Homo sapiens (Human), UniProt P00519, T315I)
Description: as §1

GSK3B = GSK3B (Homo sapiens (Human), UniProt P49841)
Description: as §1

ITK = ITK (Homo sapiens (Human), UniProt Q08881)
Description: as §1

KIT(V559D) = KIT(V559D) (Homo sapiens (Human), UniProt P10721, V559D)
Description: as §1

MAP4K2 = MAP4K2 (Homo sapiens (Human), UniProt Q12851)
Description: as §1

MLK1 = MLK1 (Homo sapiens (Human), UniProt P80192)
Description: as §1

IRAK3 = IRAK3 (Homo sapiens (Human), UniProt Q9Y616)
Description: as §1

CAMK2D = CAMK2D (Homo sapiens (Human), UniProt Q13557)
Description: as §1

MAP4K4 = MAP4K4 (Homo sapiens (Human), UniProt O95819)
Description: as §1

PIK3CA(I800L) = PIK3CA(I800L) (Homo sapiens (Human), UniProt P42336, I800L)
Description: as §1

ERK2 = ERK2 (Homo sapiens (Human), UniProt P28482)
Description: as §1

EPHA7 = EPHA7 (Homo sapiens (Human), UniProt Q15375)
Description: as §1

TSSK1B = TSSK1B (Homo sapiens (Human), UniProt Q9BXA7)
Sequence of TSSK1B (Q9BXA7 whole entry): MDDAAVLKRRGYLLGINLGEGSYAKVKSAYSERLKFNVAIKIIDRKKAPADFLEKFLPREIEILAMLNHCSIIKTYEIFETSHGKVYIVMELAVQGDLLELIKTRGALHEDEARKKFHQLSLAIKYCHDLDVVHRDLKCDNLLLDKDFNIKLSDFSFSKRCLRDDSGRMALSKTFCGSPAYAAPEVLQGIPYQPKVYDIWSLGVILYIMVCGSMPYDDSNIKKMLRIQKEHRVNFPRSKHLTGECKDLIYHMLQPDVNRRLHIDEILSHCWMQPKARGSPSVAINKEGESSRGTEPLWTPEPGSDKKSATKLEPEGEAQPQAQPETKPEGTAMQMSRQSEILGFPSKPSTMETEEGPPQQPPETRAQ
Description: as §1

ERN1 = ERN1 (Homo sapiens (Human), UniProt O75460)
Description: as §1

PFTK1 = PFTK1 (Homo sapiens (Human), UniProt O94921)
Sequence of PFTK1 (O94921 whole entry): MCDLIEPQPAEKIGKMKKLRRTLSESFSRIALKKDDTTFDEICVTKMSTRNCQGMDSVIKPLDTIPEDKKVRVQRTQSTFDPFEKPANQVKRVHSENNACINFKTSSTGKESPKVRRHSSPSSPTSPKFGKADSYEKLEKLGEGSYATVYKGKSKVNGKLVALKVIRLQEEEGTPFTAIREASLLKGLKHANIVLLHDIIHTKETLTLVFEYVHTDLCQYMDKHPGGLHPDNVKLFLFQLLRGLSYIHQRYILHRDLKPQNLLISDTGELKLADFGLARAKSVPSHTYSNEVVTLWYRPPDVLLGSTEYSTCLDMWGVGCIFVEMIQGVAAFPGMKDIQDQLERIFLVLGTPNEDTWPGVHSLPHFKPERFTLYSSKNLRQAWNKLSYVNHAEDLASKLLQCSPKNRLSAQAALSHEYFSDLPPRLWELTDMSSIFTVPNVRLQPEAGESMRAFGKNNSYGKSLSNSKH
Description: as §1

TYRO3 = TYRO3 (Homo sapiens (Human), UniProt Q06418)
Sequence of TYRO3 (Q06418 41-890): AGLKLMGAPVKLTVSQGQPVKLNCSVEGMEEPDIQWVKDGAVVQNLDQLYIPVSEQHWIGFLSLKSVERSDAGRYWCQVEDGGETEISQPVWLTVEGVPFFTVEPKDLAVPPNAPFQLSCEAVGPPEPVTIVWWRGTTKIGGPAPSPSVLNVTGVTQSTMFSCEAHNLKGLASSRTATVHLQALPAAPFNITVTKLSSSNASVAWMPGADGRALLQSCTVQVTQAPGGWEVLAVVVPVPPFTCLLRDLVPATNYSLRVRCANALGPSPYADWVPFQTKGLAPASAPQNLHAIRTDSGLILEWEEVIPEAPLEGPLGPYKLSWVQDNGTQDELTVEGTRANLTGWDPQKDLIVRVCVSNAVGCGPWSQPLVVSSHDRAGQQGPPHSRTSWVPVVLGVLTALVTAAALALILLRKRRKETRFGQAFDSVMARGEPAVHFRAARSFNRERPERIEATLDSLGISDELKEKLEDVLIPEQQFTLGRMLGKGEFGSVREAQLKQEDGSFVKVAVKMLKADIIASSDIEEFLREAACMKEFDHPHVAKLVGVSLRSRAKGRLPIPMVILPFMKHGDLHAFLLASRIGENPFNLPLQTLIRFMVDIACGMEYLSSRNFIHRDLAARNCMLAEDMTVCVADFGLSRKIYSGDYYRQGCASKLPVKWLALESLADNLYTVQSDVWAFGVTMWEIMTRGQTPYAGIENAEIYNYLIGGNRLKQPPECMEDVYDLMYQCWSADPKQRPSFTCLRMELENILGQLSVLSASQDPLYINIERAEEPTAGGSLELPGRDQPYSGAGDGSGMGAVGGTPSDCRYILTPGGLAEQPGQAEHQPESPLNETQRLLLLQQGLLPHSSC
Description: as §1

PIK3CA(E545A) = PIK3CA(E545A) (Homo sapiens (Human), UniProt P42336, E545A)
Description: as §1

BIKE = BIKE (Homo sapiens (Human), UniProt Q9NSY1)
Description: as §1

[2] = biological target: JAK1(JH2domain-pseudokinase) (Homo sapiens (Human), UniProt P23458)
Description: as §1

MRCKA = MRCKA (Homo sapiens (Human), UniProt Q5VT25)
Description: as §1

JNK2 = JNK2 (Homo sapiens (Human), UniProt P45984)
Description: as §1

PLK1 = PLK1 (Homo sapiens (Human), UniProt P53350)
Description: as §1

PIP5K1C = PIP5K1C (Homo sapiens (Human), UniProt O60331)
Description: as §1

SMILES | remaining binding at 1 µM (MST1R) [%] | remaining binding at 1 µM (PIK3CD) [%] | remaining binding at 1 µM (SGK2) [%] | remaining binding at 1 µM (WNK3) [%] | remaining binding at 1 µM (CSNK1A1L) [%] | remaining binding at 1 µM (CAMK1B) [%] | remaining binding at 1 µM (AKT3) [%] | remaining binding at 1 µM (DAPK2) [%] | remaining binding at 1 µM (PRKD2) [%] | remaining binding at 1 µM (DRAK2) [%] | remaining binding at 1 µM (AURKB) [%] | remaining binding at 1 µM (CSF1R-autoinhibited) [%] | remaining binding at 1 µM (EGFR(S752-I759del)) [%] | remaining binding at 1 µM (TNK2) [%] | remaining binding at 1 µM (TRPM6) [%] | remaining binding at 1 µM (MET(M1250T)) [%] | remaining binding at 1 µM (STK16) [%] | remaining binding at 1 µM [1] [%] | remaining binding at 1 µM (GSK3B) [%] | remaining binding at 1 µM (ITK) [%] | other results
CCN1CCN(Cc2ccc(Nc3nc4ccc(Oc5ccnc(NC(C)=O)c5)c(C)c4n3C)cc2C(F)(F)F)CC1 [Compound I-6, N-(4-(2-(4-((4-ethylpiperazin-1-yl)methyl)-3-(trifluoromethyl)phenylamino)-1,7-dimethyl-1H-benzo[d]imidazol-6-yloxy)pyridin-2-yl)acetamide] | 83 | 88 | 85 | 100 | 100 | 43 | 100 | 99 | 100 | 85 | 81 | 68 | 94 | 100 | 84 | 33 | 82 | 32 | 100 | 98 | remaining binding at 1 µM (KIT(V559D)): 0.15%; remaining binding at 1 µM (MAP4K2): 68%; remaining binding at 1 µM (MLK1): 100%; remaining binding at 1 µM (IRAK3): 91%; remaining binding at 1 µM (CAMK2D): 85%; remaining binding at 1 µM (MAP4K4): 93%; remaining binding at 1 µM (PIK3CA(I800L)): 98%; remaining binding at 1 µM (ERK2): 100%; remaining binding at 1 µM (EPHA7): 99%; remaining binding at 1 µM (TSSK1B): 100%; remaining binding at 1 µM (ERN1): 97%; remaining binding at 1 µM (PFTK1): 61%; remaining binding at 1 µM (TYRO3): 100%; remaining binding at 1 µM (PIK3CA(E545A)): 100%; remaining binding at 1 µM (BIKE): 96%; remaining binding at 1 µM [2]: 82%; remaining binding at 1 µM (MRCKA): 98%; remaining binding at 1 µM (JNK2): 66%; remaining binding at 1 µM (PLK1): 71%; remaining binding at 1 µM (PIP5K1C): 85%
CCN1CCN(Cc2ccc(Nc3nc4ccc(Oc5ccnc(NC(C)=O)c5)cc4n3C)cc2C(F)(F)F)CC1 [Compound I-2] | 80 | 72 | 89 | 100 | 86 | 50 | 99 | 79 | 92 | 100 | 49 | 52 | 100 | 94 | 79 | 63 | 59 | 46 | 76 | 97 | remaining binding at 1 µM (KIT(V559D)): 0%; remaining binding at 1 µM (MAP4K2): 100%; remaining binding at 1 µM (MLK1): 100%; remaining binding at 1 µM (IRAK3): 91%; remaining binding at 1 µM (CAMK2D): 100%; remaining binding at 1 µM (MAP4K4): 100%; remaining binding at 1 µM (PIK3CA(I800L)): 75%; remaining binding at 1 µM (ERK2): 95%; remaining binding at 1 µM (EPHA7): 93%; remaining binding at 1 µM (TSSK1B): 100%; remaining binding at 1 µM (ERN1): 91%; remaining binding at 1 µM (PFTK1): 94%; remaining binding at 1 µM (TYRO3): 100%; remaining binding at 1 µM (PIK3CA(E545A)): 100%; remaining binding at 1 µM (BIKE): 88%; remaining binding at 1 µM [2]: 97%; remaining binding at 1 µM (MRCKA): 100%; remaining binding at 1 µM (JNK2): 85%; remaining binding at 1 µM (PLK1): 100%; remaining binding at 1 µM (PIP5K1C): 81%
